This passage reports IC50 and EC50 results from US20080255206A1, “Rxr Agonists and Antagonists, Alone or in Combination with Ppar Ligands, in the Treatment of Metabolic and Cardiovascular Diseases” (priority 2005, published 2008).

The target in test [1] is T1, RARγ (Homo sapiens, UniProt P13631).
T1 construct: The DEF domains of RAR's and the full length RXR's, expressed in E.coli; made in house; host or cells: E. coli
T1 sequence (P13631 185-419 limits assumed): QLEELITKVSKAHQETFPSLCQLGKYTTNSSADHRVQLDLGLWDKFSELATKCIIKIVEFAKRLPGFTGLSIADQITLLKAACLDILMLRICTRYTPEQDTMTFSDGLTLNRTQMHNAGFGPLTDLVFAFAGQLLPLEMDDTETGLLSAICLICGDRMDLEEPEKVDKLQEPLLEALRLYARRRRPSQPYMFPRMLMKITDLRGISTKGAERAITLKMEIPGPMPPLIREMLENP
As to the kind of experiment: Retinoid binding assay, RARγ. To be noted: read-out: Binding Affinity IC50 RAR γ. The text has this:
(§1) The DEF domains of RAR's and the full length RXR's, expressed in E.coli, are used to measure competitive retinoid binding. […] 9-cis retinoic acid (for RXR's), respectively. […] Separation of bound from free radioactivity is achieved by charcoal/dextran (RAR's) or by desalting columns (RXR's). […] Retinoid Activation Assays

For test [2], the target named is T2, RARα (Homo sapiens, UniProt P10276).
T2 sequence (P10276 183-417 limits assumed): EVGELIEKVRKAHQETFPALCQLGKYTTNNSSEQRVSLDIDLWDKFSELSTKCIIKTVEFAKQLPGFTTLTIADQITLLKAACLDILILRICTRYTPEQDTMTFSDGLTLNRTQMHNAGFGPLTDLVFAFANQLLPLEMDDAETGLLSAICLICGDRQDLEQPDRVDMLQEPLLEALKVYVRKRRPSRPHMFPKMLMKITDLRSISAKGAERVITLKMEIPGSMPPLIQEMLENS
As to the kind of experiment: Retinoid binding assay, RARα. On the set-up: The DEF domains of RAR's and the full length RXR's, expressed in E.coli; made in house; host or cells: E. coli. The note with it: read-out: Binding Affinity IC50 RAR α.
From the text: as §1

For test [3], the target named is T3, RXRγ (Homo sapiens, UniProt P48443).
T3 sequence (P48443 1-463): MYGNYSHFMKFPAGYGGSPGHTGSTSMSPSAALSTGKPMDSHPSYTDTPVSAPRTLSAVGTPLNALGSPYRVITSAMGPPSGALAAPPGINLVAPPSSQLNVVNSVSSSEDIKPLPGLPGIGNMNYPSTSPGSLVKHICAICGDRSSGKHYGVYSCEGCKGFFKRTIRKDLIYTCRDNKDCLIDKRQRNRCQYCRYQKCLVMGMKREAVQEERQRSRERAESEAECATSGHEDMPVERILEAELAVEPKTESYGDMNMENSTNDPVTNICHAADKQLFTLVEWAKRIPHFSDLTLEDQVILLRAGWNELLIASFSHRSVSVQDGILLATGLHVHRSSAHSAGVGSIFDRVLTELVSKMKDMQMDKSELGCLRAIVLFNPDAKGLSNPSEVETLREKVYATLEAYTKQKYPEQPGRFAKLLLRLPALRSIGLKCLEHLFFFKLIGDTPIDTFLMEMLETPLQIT
As to the kind of experiment: Retinoid activation assay, RXRγ (Schneider SL-3 cells, luciferase reporter). It is filed as cell-based. The note with it: read-out: Activation EC50 RXR γ. Here is the method:
Full length RXR cDNA is used for transfection. As reporter system, the luciferase gene is used in a construct with three copies of a RXR response element from rat CRBP gene, (formerly RARE from betaRAR gene), fused to alcoholdehydrogenase gene promoter in the plasmid pGL2-basic. Schneider SL-3 cells from Drosophila are transiently transfected 3-4 h before the experiment by the Ca-phosphate-DNA coprecipitation method. […] At the end of the incubation, the cell supernatants are assayed for luciferase activity. Results are given as EC50 (nM), the concentration leading to half-maximal activation.
On the technique in general: In a reporter assay the amount or activity of a reporter protein is the signal.

For test [4], the target named is T4, RXRα Homodimer (Homo sapiens, UniProt P19793).
T4 construct: expressed in transfected cells; host or cells: mammalian cells (BHK21, CV1, etc)
T4 sequence (P19793 1-462): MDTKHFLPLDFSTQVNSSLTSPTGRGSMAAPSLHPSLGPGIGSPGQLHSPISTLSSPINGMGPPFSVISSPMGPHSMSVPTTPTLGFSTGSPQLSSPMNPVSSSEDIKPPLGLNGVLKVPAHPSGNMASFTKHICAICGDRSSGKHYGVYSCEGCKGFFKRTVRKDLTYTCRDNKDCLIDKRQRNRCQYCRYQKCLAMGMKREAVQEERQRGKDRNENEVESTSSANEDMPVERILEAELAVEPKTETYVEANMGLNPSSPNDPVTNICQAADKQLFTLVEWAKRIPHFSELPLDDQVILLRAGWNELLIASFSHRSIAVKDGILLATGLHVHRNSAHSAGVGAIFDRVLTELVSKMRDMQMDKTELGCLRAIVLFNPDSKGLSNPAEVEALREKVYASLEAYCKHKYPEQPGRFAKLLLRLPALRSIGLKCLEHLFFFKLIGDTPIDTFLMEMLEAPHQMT
As to the kind of experiment: RXRα homodimer activation (transactivation) assay. In kind it is cell-based. The source says:
Nuclear hormone receptor (NHR) ligand dependent transcriptional transactivation assay.
This secondary in vitro functional assay to characterize hits from the primary ligand binding screens is a GAL4-LBD transactivation assay. The Gal4-LBD protein consists of an in frame fusion of the transcription factor galactose 4 DNA binding domain from S.cerevisiae with the ligand binding domain (LBD) of a particular NHR. Briefly, a plasmid construct expressing the recombinant chimeric receptor is co-transfected into mammalian cells (BHK21, CV1, etc) with a luciferase reporter plasmid containing several copies in tandem of the GAL4 binding sites (promoter recognition elements) upstream from the minimal promoter driving the luciferase gene. The transfected cells are treated with compounds for 12-24 hours, lysates are produced and assayed for luciferase activity and normalized to internal standards such as GH, growth hormone or SEAP, secreted alkaline phosphatase. Ligand binding stabilizes the LBD conformation that recruits endogenous co-factors that mediate eventually the increased transcriptional activity of the luciferase reporter gene. By comparing the activation profile of a reference ligand or a natural ligand, the EC50 values for agonistic activity of a particular ligand can be measured. The extent of activation that can be measured is indicative of a partial, respectively full agonistic activity of a ligand. […]

Test [5] deals with T5, RARβ (Homo sapiens, UniProt P10826).
T5 sequence (P10826 183-417 limits assumed): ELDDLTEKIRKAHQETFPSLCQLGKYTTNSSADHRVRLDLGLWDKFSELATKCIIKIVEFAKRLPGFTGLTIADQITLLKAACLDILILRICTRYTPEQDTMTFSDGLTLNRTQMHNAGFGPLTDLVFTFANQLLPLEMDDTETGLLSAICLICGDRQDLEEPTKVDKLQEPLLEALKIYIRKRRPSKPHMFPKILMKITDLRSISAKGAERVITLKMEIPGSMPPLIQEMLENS
The experiment in a line: Retinoid binding assay, RARβ. The note with it: read-out: Binding Affinity IC50 RAR β. More on the design: The DEF domains of RAR's and the full length RXR's, expressed in E.coli; made in house; host or cells: E. coli.
From the text: as §1

In general, IC50 refers to the concentration needed to halve the response being measured. What is called EC50 is the concentration at which the effect is half-maximal. Consider `C/C(=C/C=C/C(C)=C/C(=O)O)c1cc2c(cc1C)C(C)(C)CCCC2` [Compound 13, (2E,4E,6Z)-3-Methyl-7-(3,5,5,-trimethyl-6,7,8,9-tetrahydro-5H-benzocyclohepten-2-yl)-octa-2,4,6-trienoic acid], for which the IC50 in test [1] was 5.3 µM; in test [2], 6.5 µM. Moreover, the EC50 in test [3] was determined as 0.4 µM; in test [4], 0.0015 µM.
For `CC1=C(C#CC2=C(/C=C/C(C)=C/C(=O)O)CCCCC2)C(C)(C)CCC1` [Compound 18], the IC50 in test [1], in test [2] and in test [5] was above 10 µM throughout. Besides, the EC50 is at least 10 µM in test [3] and above 10 µM in test [4].
With `CC1=C(/C=C/C2=C(/C=C/C(C)=C/C(=O)O)CCCCC2)C(C)(C)CCC1` [Compound 1, (2E,4E)-3-methyl-5-[2-[(E)-2-(2,6,6-trimethyl-1-cyclohexen-1-yl)ethenyl]-1-cyclohepten-1-yl]-2,4-pentadienoic acid], the IC50 in test [1], in test [2] and in test [5] was above 10 µM throughout. For the same compound, the EC50 in test [3] was at least 10 µM; in test [4], 0.0014 µM.
Take `CCCCOc1c([C@@H]2C[C@@H]2/C=C/C(C)=C/C(=O)O)cc(C(C)(C)C)cc1C(C)(C)C` (racemic) [Compound 16, (2E,4E)-(1RS,2RS)-5-[2-(3,5-Di-tert-butyl-2-butoxy-phenyl)-cyclopropyl]-3-methyl-penta-2,4-dienoic acid]: the IC50 in test [1], in test [2] and in test [5] was above 10 µM throughout. The EC50 was at least 10 µM in test [3] and above 10 µM in test [4].
As to `CCOc1c(\C(C)=C/C=C/C(C)=C/C(=O)O)cc(C(C)(C)C)cc1C(C)(C)C` [Compound 21, (2E,4E,6Z)-7-[3,5-Bis(1,1-dimethylethyl)-2-ethoxyphenyl]-3-methyl-2,4,6-octatrienoic acid/ethyl ester], the IC50 in test [1], in test [2] and in test [5] was above 10 µM each time. For the same compound, the figures for the EC50 in test [3] and in test [4] were at least 10 µM and above 10 µM, respectively.
`CCC1(CC)CCC(C)(C)c2cc(\C(C)=C/C=C/C(C)=C/C(=O)O)ccc21` [Compound 24, (2E,4E,6Z)-7-(5,5-Diethyl-8,8-dimethyl-5,6,7,8-tetrahydro-naphthalen-2-yl)-3-methyl-octa-2,4,6-trienoic acid]: the IC50 stood at 0.033 µM in test [1], 0.046 µM in test [2] and 0.02 µM in test [5]. Besides, the EC50 in test [3] is at least 10 µM; in test [4], above 10 µM.
`CC1=C(/C=C/C2=C(/C=C/C(C)=C/C(=O)O)CCC2)C(C)(C)CCC1` [Compound 14, (2E,4E)-3-Methyl-5-[2-[(E)-2-(2,6,6-trimethyl-1-cyclohexen-1-yl)ethenyl]-1-cyclopenten-1-yl]-2,4-pentadienoic acid]: the results for the EC50 in test [3] and in test [4] were 0.05 µM and 0.006 µM, respectively.
As for `CC(/C=C/C1=C(c2ccc3c(c2)C(C)(C)CCC3(C)C)CCCC1)=C\C(=O)O` [Compound 6, (2E,4E)-3-Methyl-5-[2-(5,5,8,8-tetramethyl-5,6,7,8-tetrahydro-naphthalen-2-yl)-cyclohex-1-enyl]-penta-2,4-dienoic acid], the IC50 in test [1], in test [2] and in test [5] was above 10 µM in each case. Also, the EC50 in test [3] is 0.14 µM; in test [4], 0.019 µM.
As to `CC(/C=C/c1sccc1-c1ccc2c(c1)C(C)(C)CCC2(C)C)=C\C(=O)O` [Compound 9], the IC50 in test [1] is 3.6 µM; in test [2], 3.4 µM; in test [5], 3.8 µM. The EC50 in test [3] worked out at 0.09 µM; in test [4] it was 0.0025 µM.
The corresponding values for `CC(/C=C/[C@@H]1C[C@@H]1c1ccc2c(c1)C(C)(C)CCC2(C)C)=C\C(=O)O` (racemic) [Compound 4, (2E,4E)-3-methyl-5-[(1RS,2RS)-2-(5,5,8,8-tetramethyl-5,6,7,8-tetrahydro-naphthalen-2-yl)-cyclopropyl]-penta-2,4-dienoic acid] are 7.5 µM, above 10 µM, above 10 µM, 0.05 µM and 0.0035 µM.
As for `CC1=C(/C=C/c2sccc2/C=C/C(C)=C/C(=O)O)C(C)(C)CCC1` [Compound 5, (2E,4E)-3-Methyl-5-[2-[(E)-2-(2,6,6-trimethyl-1-cyclohexen-1-yl)ethenyl]-3-thienyl]-2,4-pentadienoic acid], the results for the IC50 in test [1], in test [2] and in test [5] were 5.3 µM, 1.6 µM and 1 µM, respectively. Further, the EC50 in test [3] is at least 10 µM; in test [4], 0.0008 µM.
As for `CCCCOc1c(\C(C)=C/C=C/C(C)=C/C(=O)O)cc(C(C)(C)C)cc1C(C)(C)C` [Compound 15, (2E,4E,6Z)-7-[2-butoxy-3,5-bis(1,1-dimethylethyl)phenyl]-3-methyl-2,4,6-octatrienoic acid], the IC50 was 2.7 µM in test [1], 4.2 µM in test [2] and above 10 µM in test [5]. Moreover, the results for the EC50 in test [3] and in test [4] were at least 10 µM and above 10 µM, respectively.
